Measurements published in patent publication US5672597A, “Acetamide derivative” (Kaken Pharmaceutical Co., Ltd., priority 1992, dated 1997).

Key:
[1] = system: ulcer induced by pylorus-ligation; test: Test of ulcer induced by pylorus-ligation; format: in vivo, wistar male rat; settings: 14 h; rat, 100 mg/kg, in the duodenum immediately after ligating the pylorus; hydrochloride salts; read-out: Percentage of inhibition of ulcer formation
Description: (§1) With respect to anti-ulcer effect of the compounds having the general formula (I), there were carried out a test of ulcer induced by pylorus-ligation, which ulcer is induced mainly due to offensive factors; a test of ulcer induced by hydrochloric acid/ethanol, which ulcer is induced mainly due to defensive factors such as mucosal blood flow and mucus; and a test of ulcer induced by a stress of restraint plus water-immersion, which ulcer is induced due to both of offensive and defensive factors. Further, there were carried out a test of ulcer induced by acetic acid as a chronic ulcer model and a test of cure-prolonged ulcer induced by acetic acid. Also, there was examined an activity of increasing gastric mucosal blood flow, which activity brings about acceleration of regeneration of the gastric mucosa. As test compounds, hydrochloride salts were used.
The pylorus of a wistar male rat weighing 230 to 250 g, which had fasted for 48 hours, was ligated under ether-anesthesia, according to a usual method. After 14 hours, the animal was sacrificed by ether and the stomach was taken out therefrom.
The area of the ulcer generated on the fore-stomach was measured and the total area of the ulcer per rat was classified into the following six grades to give ulcer coefficients (Table 4).
Each of them was suspended in 0.5% methylcellulose solution and administered in the duodenum immediately after ligating the pylorus, in a dose of 100 mg/kg (body weight), respectively. To control group, only the medium for the medicament solution was administered in an amount of 0.25 ml/100 g (body weight).
The obtained results were subjected to the following formula to calculate a percentage of inhibition of ulcer formation. Six rats were used in each group for the test: [formula]

[2] = system: ulcer induced by hydrochloric acid/ethanol; test: Test of ulcer induced by hydrochloric acid/ethanol; format: in vivo, wistar male rat; settings: 1 h; rat, 30 mg/kg oral, 30 minutes before hydrochloric acid/ethanol; hydrochloride salts; read-out: Percentage of inhibition of ulcer formation
Description: as §1
To a wistar male rat weighing 220 to 240 g, which had fasted and thirsted for 24 hours, was orally administered 150 mM hydrochloric acid/70% ethanol solution in an amount of 5 ml/kg (body weight). After 1 hour, the animal was sacrificed by dislocating the cervical vertebrae and the stomach was taken out therefrom. The length of the ulcer generated on the glandular stomach was measured and the total thereof was regarded as the ulcer coefficient (mm).
To control group, only the medium for the medicament solution was orally administered in an amount of […] (body weight), 30 minutes before the administration of hydrochloric acid/ethanol.
(§2) The obtained results were subjected to the same formula as in the test of ulcer induced by pylorus-ligation, to calculate a percentage of inhibition of ulcer formation. Six rats were used in each group for the test.

[3] = system: ulcer induced by a stress of restraint plus water-immersion; test: Test of ulcer induced by a stress of restraint plus water-immersion; format: in vivo, ddY male mouse; settings: 7 h; mouse, 30 mg/kg oral, 15 minutes before the load of the stress; hydrochloride salts; read-out: Percentage of inhibition of ulcer formation
Description: as §1
A ddY male mouse weighing 20 to 25 g, which had fasted for 18 hours, was put into a stress cage, and was loaded with a stress by immersing it in a water tank at 23° C., to a level of a xiphoid. After 7 hours, the animal was sacrificed by dislocating the cervical vertebrae and the stomach was taken out therefrom. The length of the ulcer generated on the glandular stomach was measured and the total thereof was regarded as the ulcer coefficient (mm).
To control group, only the medium for the medicament solution was orally administered in an amount of 0.1 ml/10 g (body weight) 15 minutes before the load of the stress.
as §2

[4] = system: ulcer induced by acetic acid; test: Test of ulcer induced by acetic acid; format: in vivo, wistar male rat; settings: rat, 15 mg/kg oral, twice a day from 2 days after generation of the ulcer
Description: as §1
Into the junction of the glandular stomach and the antrum, of a wistar male rat weighing 220 to 240 g, was injected subserosally […] of 20% acetic acid to generate an ulcer induced by acetic acid. […] Each of them was suspended in 0.5% methylcellulose solution, and administered orally in a dose of 15 mg/kg, twice a day (in the morning and in the evening) from 2 days after the generation of the ulcer for days, respectively. The animal was sacrificed by ether on the day after the last administration, and the stomach was taken out therefrom. The area of the ulcer was measured.
The obtained results were subjected to the following formula to calculate a percentage of improvement for curing ulcer. To control group, only the medium for the medicament solution was administered in an amount of 0.5 ml/100 g (body weight). Twenty rats were used in each group for the test. [formula]

[5] = system: cure-prolonged ulcer induced by acetic acid; test: Test of cure-prolonged ulcer induced by acetic acid; format: in vivo, wistar male rat; settings: rat, 50 mg/kg oral, twice a day; cure prolonged with indomethacin 1 mg/kg s.c. for 13 days
Description: as §1
Into the junction of the glandular stomach and the antrum, of a wistar male rat weighing 220 to 240 g, was injected subserosally 30 μl of 20% acetic acid to generate an ulcer induced by acetic acid. From 2 days after the generation of the ulcer, indomethacin was injected subcutaneously in the regions of back of the rat in a dose of 1 mg/kg, once a day for 13 days to prolong the cure of the ulcer induced by acetic acid.
Each of them was suspended in 0.5% methylcellulose solution, and administered orally in a dose of 50 mg/kg, twice a day (in the morning and in the evening) from 13 days, respectively. The animal was sacrificed by ether on the day after the last administration, and the stomach was taken out therefrom. The area of the ulcer was measured. The obtained results were subjected to the following formula to calculate a percentage of improvement for curing ulcer. To control group, only the medium for the medicament solution was administered in an amount of 0.5 ml/100 g (body weight). Twenty rats were used in each group for the test. [formula]

[6] = system: gastric mucosal blood flow; test: Activity of increasing gastric mucosal blood flow; format: in vivo, wistar male rat; settings: rat, urethane-anesthesia, 220 μg/kg intravenous, 60 minutes after administration
Description: as §1
An amount of the mucosal blood flow in the body of the stomach of a wistar male rat weighing 220 to 240 g under urethane-anesthesia was measured by means of a laser doppler blood flow meter. As test compounds, there were used the compound of the present invention and, as comparative compound, FRG-8813. Each of them was intravenously administered in a dose of 220 μg/kg. A percentage of increase of the blood flow was calculated 60 minutes after the administration. Five rats were used for each group for the test.

SMILES | inhibition in vivo at 100 mg/kg [1] [%] | inhibition in vivo at 30 mg/kg [2] [%] | inhibition in vivo at 30 mg/kg [3] [%] | Percentage of improvement for curing ulcer [4] [%] | Percentage of improvement for curing ulcer [5] [%] | Percentage of increase of blood flow [6] [%]
CCOC(=O)NCC[S+]([O-])CC(=O)NC/C=C\COc1cccc(CN2CCCCC2)c1 (stereo not drawn) [Example 75, N-[4-[3-(piperidinomethyl)phenoxy]-cis-2-butenyl]-2-[2-(ethoxycarbonylamino)ethylsulfinyl]acetamide] | 96 | 82 | 87 | 24 | 49 | 15
O=C(C[S+]([O-])Cc1ccco1)NC/C=C\COc1cc(CN2CCCCC2)ccn1 (stereo not drawn) [FRG-8813, reference compound] | 27 | 70 | 85 | 12 | -5 | 3
